Test [1] deals with Enterococcus faecium E417-HM-965. In words: MIC of CAIs in BHIB and TSB. Type of test: cell-based. As for the experimental part: (§1) The minimum inhibitory concentrations (MICs) of CAIs were tested against clinical isolates of vancomycin sensitive and vancomycin resistant Enterococci strains as per the guidelines provided by the Clinical and Laboratory Standards Institute (CLSI). The selected strains of Enterococci were streaked on Tryptic Soy Agar (TSA) plates and let grow for 24 hours at 37° C. Afterwards, a bacterial solution equivalent to 0.5 McFarland standard was prepared and diluted in tryptone soy broth (TSB) or brain heart infusion broth (BHIB) to achieve a bacterial concentration of about 5×10^5 CFU/mL and seeded in 96-well well plates. Compounds and control drugs were added in the first row of the 96-well plates and serially diluted along the plates. Plates were then incubated aerobically at 37° C. for 18-20 hours. MICs reported in Table 5 are the minimum concentration of the compounds/control drugs that could inhibit completely the visual growth of the bacteria.

For test [2], the system named is Enterococcus faecium Patient #2-1-NR-31909. In words: MIC of CAIs in BHIB and TSB. The test is classed as cell-based. As for the experimental part: as §1
For test [3], the system named is Enterococcus fecalis Strain SF 24397 NR31970. In words: MIC of CAIs in BHIB and TSB. The test is classed as cell-based. As for the experimental part:
as §1

Test [4] has as its system Enterococcus faecalis—S613 HM-334. Briefly: MIC of CAIs in BHIB and TSB. The test is classed as cell-based. Here is the method:
as §1, with “bacteria. The MIC values of CAIs against the tested VRE strains were higher in BHIB than in TSB. This may be due to binding of these drugs to proteins. […] They inhibited the VRE strains at MIC values ranging from 1 to 4 μg/mL.” for “bacteria.”

The test system of test [5] is Enterococcus faecalis-S613 HM-334. In words: MIC in presence of 4% human serum albumin. Type of test: cell-based. The settings on record: TSB supplemented with 4% human serum albumin. As for the experimental part:
as §1, with “against” for “against clinical isolates of vancomycin sensitive and”, “resistant Enterococcus faecalis—S613 HM 334 strain” for “resistant Enterococci strains”, “selected strain was” for “selected strains of Enterococci were”, “(TSA) plate” for “(TSA) plates”, “(TSB) supplemented with 4% human serum albumin (HAS)” for “(TSB) or brain heart infusion broth (BHIB)”, “in table (6)” for “in Table 5”

The test system of test [6] is Enterococcus faecium E417-HM-965. Briefly: MIC, broth microdilution in TSB. The test is classed as cell-based. To be noted: Enterococcus faecium, E417HM965, TSB. Here is the method: (§2) The minimum inhibitory concentrations (MICs) of the compounds and control drugs were determined using the broth microdilution method, according to guidelines outlined by the Clinical and Laboratory Standards Institute (CLSI). Enterococci strains were grown aerobically overnight on tryptone soya agar plates at 37° C., afterwards a bacterial solution equivalent to 0.5 McFarland standard was prepared and diluted in tryptone soy broth (TSB) to achieve a bacterial concentration of about 5×10^5 CFU/mL and seeded in 96-well well plates. Compounds and control drugs were added in the first row of the 96-well plates and serially diluted along the plates. Plates were then incubated aerobically at 37° C. for 18-20 hours. MICs reported in Table 1 are the minimum concentration of the compounds/control drugs that could inhibit completely the visual growth of the bacteria.

Test [7] has as its system Enterococcus faecium Patient #2-1-NR-31909. In words: MIC, broth microdilution in TSB. The test is classed as cell-based. The settings on record: Enterococcus faecium, TSB. Here is the method:
as §2
On the technique in general: Dilution methods test growth across graded concentrations, often in twofold steps.

The test system of test [8] is MRSA NRS 384 (MRSA USA300). In words: MIC against Staphylococci, broth microdilution. The test is classed as cell-based, Staphylococcus aureus. The settings on record: Staphylococcus aureus; TSB; read-out: MIC. Here is the method:
as §2, with “Institute (CLSI) 1. Staphylococci” for “Institute (CLSI). Enterococci”, “Table 2” for “Table 1”

Test [9] concerns Staphylococcus epidermidis NRS 101. Briefly: MIC against Staphylococci, broth microdilution. To be noted: Staphylococcus epidermidis, NRS101; TSB; read-out: MIC. Type of test: cell-based. As for the experimental part:
as §2, with “Institute (CLSI) 1. Staphylococci” for “Institute (CLSI). Enterococci”, “Table 2” for “Table 1”

Test [10] deals with Bacteroides dorei—CL02T12C06 HM-719. In words: MIC against human normal gut microbiota. Type of test: cell-based. The settings on record: Bacteroides; BHIS broth, anaerobic, 48 hours; read-out: MIC. Here is the method: (§3) Three different bacterial strains were used in this experiment; Bifidobacterium (anaerobic Gram positive bacteria), Bacteroides (anaerobic Gram negative bacteria) and Lactobacillus (microaerophilic Gram positive bacteria). Bifidobacterium and Bacteroides were first grown for 48 hours at 37° C., anaerobically using brain heart infusion supplemented (BHIS) agar (Brain heart infusion agar supplemented with hemin, vitamin K and L-cysteine). Lactobacillus was cultivated on MRS agar and incubated in presence of 5% CO2 for 48 hours at 37° C. Each bacterium was suspended in phosphate buffered saline (PBS) to produce a suspension with optical density that matches 0.5 McFarland standard and diluted in brain heart infusion supplemented broth (for Bifidobacterium and Bacteroides) or in MRS broth (for Lactobacillus) to achieve bacterial concentration of approximately 5×10^5 CFU/ml. Bacteria were then seeded in 96-well plates containing serial dilutions of the compounds and incubated as mentioned previously for 48 hours.

Test [11] concerns Bacteroides fragilis—CL07T00C01 HIM-709. In words: MIC against human normal gut microbiota. The test is classed as cell-based. The settings on record: Bacteroides; BHIS broth, anaerobic, 48 hours; read-out: MIC. As for the experimental part:
as §3

Test [12] relates to Bifidobacterium breve—JCP7499 HIM 1120. Briefly: MIC against human normal gut microbiota. Type of test: cell-based. The settings on record: Bifidobacterium; BHIS broth, anaerobic, 48 hours; read-out: MIC. As for the experimental part:
as §3

The subject of test [13] is Bifidobacterium longum subsp. Longum—44B HM 845. In words: MIC against human normal gut microbiota. The test is classed as cell-based. To be noted: Bifidobacterium longum; BHIS broth, anaerobic, 48 hours; read-out: MIC. As for the experimental part: as §3
Test [14] relates to Lactobacillus casei ATCC 334. In words: MIC against human normal gut microbiota. The test is classed as cell-based. To be noted: Lacticaseibacillus casei, ATCC334; MRS broth, 5% CO2, 48 hours; read-out: MIC. Here is the method:
as §3

The test system of test [15] is Lactobacillus gasseri EX336960VC03 HIM-400. Briefly: MIC against human normal gut microbiota. The settings on record: Lactobacillus gasseri; MRS broth, 5% CO2, 48 hours; read-out: MIC. Type of test: cell-based. Here is the method: as §3
In test [16] the test system is Mutant-2 of Enterococcus fecalis NR 31975. Briefly: microbe, parasite or virus in culture. Type of test: cell-based. The settings on record: Enterococcus.
Test [17] deals with Mutant-3 of Enterococcus fecalis NR 31975. Briefly: microbe, parasite or virus in culture. Type of test: cell-based. To be noted: Enterococcus.
Test [18] relates to Mutant-4 of Enterococcus fecalis NR 31975. In words: microbe, parasite or virus in culture. The test is classed as cell-based. The settings on record: Enterococcus.
Test [19] deals with Mutant-5 of Enterococcus fecalis NR 31975. In words: microbe, parasite or virus in culture. Type of test: cell-based. To be noted: Enterococcus.
Test [20] has as its system Mutant-6 of Enterococcus fecalis NR 31975. Briefly: microbe, parasite or virus in culture. Type of test: cell-based. To be noted: Enterococcus.
The subject of test [21] is Mutant-7 of Enterococcus fecalis NR 31975. Briefly: microbe, parasite or virus in culture. Type of test: cell-based. To be noted: Enterococcus.
The test system of test [22] is Mutant-8 of Enterococcus fecalis NR 31975. Briefly: microbe, parasite or virus in culture. The settings on record: Enterococcus. Type of test: cell-based.
Test [23] has as its system Mutant-9 of Enterococcus fecalis NR 31975. In words: microbe, parasite or virus in culture. The settings on record: Enterococcus. Type of test: cell-based.
The test system of test [24] is Mutant-11 of Enterococcus fecalis NR 31975. In words: microbe, parasite or virus in culture. Type of test: cell-based. To be noted: Enterococcus.
The subject of test [25] is Mutant-12 of Enterococcus fecalis NR 31975. Briefly: microbe, parasite or virus in culture. The test is classed as cell-based. The settings on record: Enterococcus.
Test [26] has as its system Mutant-13 of Enterococcus fecalis NR 31975. In words: microbe, parasite or virus in culture. Type of test: cell-based. The settings on record: Enterococcus.
Test [27] relates to Mutant-14 of Enterococcus fecalis NR 31975. In words: microbe, parasite or virus in culture. The test is classed as cell-based. The settings on record: Enterococcus.
Test [28] deals with Mutant-15 of Enterococcus fecalis NR 31975. Briefly: microbe, parasite or virus in culture. Type of test: cell-based. To be noted: Enterococcus.
The mark [29] stands for this setting: Enterococcus faecium, E417HM965, BHIB, read-out: MIC.
[30] abbreviates: Enterococcus faecium, E417HM965, TSB, Table 5, read-out: MIC.
Where [31] appears, read: Enterococcus faecium, BHIB, read-out: MIC.
[32] abbreviates: Enterococcus faecium, TSB, Table 5, read-out: MIC.
Where [33] appears, read: Enterococcus, BHIB, read-out: MIC.
Where [34] appears, read: Enterococcus, TSB, Table 5, read-out: MIC.
The mark [35] stands for this setting: Enterococcus, BHIIB, read-out: MIC.

Values after ≈ are worked out from the molar mass of the structure shown. Read-outs that look alike come from different tables or passages of the source. A value given as a limit tells only on which side of the number the result lay.

On to `CCN[C@H]1CN(CCCOC)S(=O)(=O)c2sc(S(N)(=O)=O)cc21` [Brinzolamide], for which the MIC in test [1] (setting [29]) is 16 µg/mL; in test [1] (setting [30]) it was 2 µg/mL; in test [2] (setting [31]), greater than 128 µg/mL; in test [2] (setting [32]) it was 4 µg/mL; in test [3] (setting [33]), greater than 128 µg/mL; in test [3] (setting [34]), 2 µg/mL. Further, the MIC in test [4] (setting [35]) is greater than 128 µg/mL; in test [4] (setting [34]) it was 2 µg/mL; in test [5] (Enterococcus, read-out: MIC) it was greater than 256 µg/mL.
For the molecule `CCCC(=O)Nc1nnc(S(N)(=O)=O)s1` [CAI0013, N-(5-Sulfamoyl-1,3,4-thiadiazol-2-yl) butyramide], the MIC was 0.5 µg/mL (≈ 2 µM) in test [6] (Table 1, read-out: MIC); 0.5 µg/mL (≈ 2 µM) in test [6] (Table 7, read-out: MIC in TSB); 0.5 µg/mL (≈ 2 µM) in test [7] (Table 1, read-out: MIC); 0.5 µg/mL (≈ 2 µM) in test [7] (Table 7, read-out: MIC in TSB); greater than 64 µg/mL in [8]; greater than 64 µg/mL in test [9]. In addition, the MIC in test [10], in test [11], in test [12], in test [13], in test [14] and in [15] was greater than 64 µg/mL throughout. Moreover, the MIC was 8 µg/mL (≈ 32 µM) in test [16]; 16 µg/mL (≈ 63.9 µM) in test [17]; 16 µg/mL (≈ 63.9 µM) in [18]; 16 µg/mL (≈ 63.9 µM) in [19]; 8 µg/mL (≈ 32 µM) in test [20]; 8 µg/mL (≈ 32 µM) in test [21]. The MIC in [22] stood at 16 µg/mL (≈ 63.9 µM); in test [23], 8 µg/mL (≈ 32 µM); in test [24] it was 8 µg/mL (≈ 32 µM); in test [25] it was 8 µg/mL (≈ 32 µM); in test [26], 16 µg/mL (≈ 63.9 µM); in test [27] it was 8 µg/mL (≈ 32 µM). The same molecule yielded an MIC in [28] of 16 µg/mL (≈ 63.9 µM).
Turning to `NS(=O)(=O)c1cc(Cl)c(Cl)c(S(N)(=O)=O)c1` [Dichlophenamide], the MIC in [1] (BHIB) was 16 µg/mL; in test [1] (TSB, Table 5) it was 1 µg/mL; in test [2] (BHIB), greater than 128 µg/mL; in [2] (TSB, Table 5), 2 µg/mL; in test [3] (BHIB), greater than 128 µg/mL; in test [3] (TSB, Table 5), 16 µg/mL. Moreover, the MIC was greater than 128 µg/mL in [4] (BHIIB); 16 µg/mL in test [4] (TSB, Table 5); greater than 256 µg/mL in [5].
In the case of `CCOc1ccc2nc(S(N)(=O)=O)sc2c1` [Ethoxzolamide], the MIC in [1] (setting [29]) was 16 µg/mL; in [1] (setting [30]), 2 µg/mL; in [2] (setting [31]), 64 µg/mL; in test [2] (setting [32]), 2 µg/mL; in [3] (setting [33]) it was greater than 128 µg/mL; in test [3] (setting [34]), 2 µg/mL. Besides, the MIC in test [4] (setting [35]) was greater than 128 µg/mL; in [4] (setting [34]), 1 µg/mL; in [5] (Enterococcus, read-out: MIC), greater than 256 µg/mL.
For `CC(=O)/N=c1/sc(S(N)(=O)=O)nn1C` [Methazolamide], the MIC in test [1] (setting [29]) was 64 µg/mL; in test [1] (setting [30]) it was 4 µg/mL; in [2] (setting [31]), greater than 128 µg/mL; in [2] (setting [32]), 8 µg/mL; in test [3] (setting [33]), greater than 128 µg/mL; in [3] (setting [34]), 2 µg/mL. In addition, the MIC in test [4] (setting [35]) is greater than 128 µg/mL; in test [4] (setting [34]), 1 µg/mL; in test [5] (Enterococcus, read-out: MIC), greater than 256 µg/mL.
